Reference: US20070087982A1, “Methods of treatment and diagnosis using modulators of virus-induced cellular gene sequences” (priority 2003, published 2007)

Key:
[1] = system: HIV-1 89.6; assay: HIV replication assay (HIV-1 p24 antigen ELISA) in HIV-infected THP-1 and MT-2 cells; assay type: cell-based; conditions: for Extent of PMO-induced Inhibition of HIV replication: HIV-1 89.6, measured by gag p24 production, gene-specific PMO antisense
Text: Introduction of antisense PMO into HIV-infected THP-1 or MT-2 cells. Antisense PMO molecules, for delivery purposes, are typically converted to a paired duplex together with a partially complementary cDNA oligonucleotide in the weakly basic delivery reagent ethoxylated polyethylenimine (EPEI) (Summerton, supra). The anionic complex binds to the cell surface, is taken up by endocytosis and eventually released into the cytosol. A protocol for optimum uptake of antisense PMO in THP-1 and MT-2 cells was developed using a modification of the EPEI method. PMO-AS were obtained from GeneTools (Genetools, LLC, One Summerton Way, Philomath, Oreg. 97370).
Briefly, loading into target cells was accomplished by complexing the PMO with a proprietary loading reagent, Ethoxylated Polyethylenimine (EPEI). Target cells (MT-2 or THP-1) were introduced into snap cap conical tubes (5×10^5 cells/tube) in 900 μl serum free RPMI and the EPEI-PMO complex was added for 4 hours at 37° C. in a 7% CO2 atmosphere. The PMO-EPEI complex was prepared by diluting 5 μl PMO in 40 μl sterile RNase-free water, adding 5 μl EPEI, vortexing and incubating the sample for 20 minutes at room temperature. The sample was then mixed with 50 μl serum-free RPMI and added to the target cells to yield a final volume of 1 ml. At the end of the loading period, cells were gently pelleted and the PMO solution was removed by aspiration. After a further wash, cells were incubated in complete RPMI for 12 hrs prior to HIV infection to allow for recovery and initiation of PMO action.
HIV-1 Infection. PMO-treated THP-1 or MT-2 cells were infected with 50 μl of concentrated HIV-1 89.6 diluted to 1 ml in serum-free RPMI. The following control cultures were identically infected: (i) to control for any non-specific effect of the loading protocol, cells exposed to EPEI alone during the loading procedure; (ii) as a positive control for normal HIV infection, cells that were not exposed to either EPEI or EPEI-PMO; (iii) as a control for HIV inhibition, cells infected with HIV in the presence of 2 μM AZT and maintained in AZT throughout.
Cells were exposed to HIV for 4 hours. The inoculum was removed by 3 cycles of pelleting and rinsing. The cells were resuspended in 1.5 ml of complete RPMI and 0.5 ml immediately removed at Time 0 to leave a final volume of 1 ml. The Time 0 sample served as a measure of residual virus. At each harvest time (T1 through T4), 0.5 ml of supernatant was removed and replaced with an equal volume of complete RPMI. Samples were stored at −80° C. until evaluation using a p24 ELISA assay (described below). Each experimental variable and control was performed in duplicate. T1 through T4 typically corresponded to 16, 24, 40 and 48 hrs PI, respectively.
Validation of KSHV-induced gene sequences; HIV-1 p24 antigen ELISA. To monitor the effect of PMO-targeting of cellular proteins on HIV replication, supernatants harvested from PMO-treated and control THP and MT-2 cells were assayed using an HIV p24 antigen ELISA. The rationale behind this assay is described in the following paragraph.
The HIV-1 gag protein p24 is the major internal structural component of the virion core. The Coulter p24 assay is an enzyme-liked immunosorbent assay (ELISA) performed using a commercially available kit (Beckman Coulter). It was developed specifically for the detection and quantitation of HIV-1 p24 in plasma or serum, for clinical purposes, or in tissue culture supernatants, to monitor virus replication. Each kit contains a 96-well microtiter tray pre-coated with a monoclonal antibody to p24. A specimen of plasma, serum or tissue culture supernatant is added to each well along with a viral lysis buffer and incubated to allow any p24 antigen present to bind to the coated well. Following a wash, biotinylated human anti-HIV IgG is added and incubated to allow complexing to any bound p24. Following another wash, strepatavidin-HRP is added to complex with any bound biotinylated complexes. […]

[2] = system: HIV-infected MT-2 cells; assay: HIV-induced syncytia formation in MT-2 cells; assay type: cell-based, human; conditions: 48 hours post infection
Experimental: The panels of FIG. 7 show the relative extent of HIV-induced syncytia formation in MT-2 cells at 48 hours post infection under various conditions. “Control” cells are HIV-infected cells, but are not treated with any test agent. “DMSO” treatment alone is also included as a control. Other treatments include, AZT, PP3 and PP2, all solubilized in DMSO.

[3] = system: WNV (NY1999); assay: Infectious WNV in culture supernatant of SKN-MC cells (plaque assay on Vero cells); assay type: cell-based, West Nile virus; conditions: multiplicity of infection 5, 20 μM, 22 hours post-infection (20 h post-PP2 addition)
Text: SKN-MC neutoblastoma cells were infected with WNV at a multiplicity of 5.

[4] = system: WNV; assay: Infectious WNV within infected SKN-MC cell lysates (plaque assay on Vero cells); assay type: cell-based, West Nile virus
Experimental: Additionally, infectious virus within infected cell lysates was decreased almost 10^6-fold four hours post-addition of PP2 (FIG. 8B, gray bars; and FIG. 15, left panel). […] Specifically, SKN-MC cells were infected with WNV as above. At 2 hpi, cells were treated with PP2 at the indicated final concentrations. At 20 hpi, cells were re-fed with media containing fresh PP2 at the same concentration. Cells were washed 3-times with phosphate buffered saline (PBS), resuspended in 250 μl PBS, and then lysed by 3 successive freeze/thaws. Lysates were centrifuged at 13,000×g for 5 minutes, followed by collection of the supernatant. Infectious virus in soluble lysate was measured by plaque assay on Vero cells. Samples were collected 4-hours post-addition of fresh PP2 (gray bars) and 24 hours post addition of fresh PP2 (black bars). 24-hours post-addition of PP2, virus within the infected cell was approximately 500-fold lower, indicating some recovery from the effect of the drug (FIG. 8B, black bars).

[5] = system: WNV RNA; assay: Quantitative RT-PCR (Taqman) of WNV RNA within infected SKN-MC cells; assay type: cell-based, West Nile virus; conditions: 4 hours post PP2 addition, normalized to β-actin
Experimental: Specifically, cells were prepared as described above in relation to FIG. 8B. Four hours post fresh PP2 addition, RNA was isolated from 200 μl of cell lysate by Trizol reagent (Invitrogen), and 1 μg total RNA was used in a quantitative RT-PCR reaction (Taqman) using WNV-specific primer and probe set and standards. An additional RT-PCR was performed using β-actin-specific primers and probe, for an internal control. WNV RNA quantities were normalized to the β-actin values.

[6] = system: WNV E protein; assay: Endo H / PNGase F sensitivity of WNV E protein in infected Vero cells (western blot); assay type: cell-based, West Nile virus; conditions: WNV multiplicity 3, PP2 added 1 hpi, 24 hpi, consistent at 48 h
Experimental: Inhibition of src-family kinases (SFKs) may result in mis-localization or aberrant trafficking of WNV proteins, thereby interfering with formation of infectious particles. To test this hypothesis, lysates from WNV-infected cells (with or without PP2) were treated with Endoglycosidase H (Endo H) or Peptide N-glycosidase F (PNGase F).
Endo H removes immature high-mannose glycans from proteins. High-mannose structures are added to proteins in the endoplasmic reticulum (ER). Such structures are trimmed and further modified in the Golgi, conferring resistance to endo H. Sensitivity to endo H is therefore indicative of proteins that have not advanced beyond the endoplasmic reticulum in the secretory pathway (Maley, et al., Anal. Biochem. 180:195, 1989.
PNGase F will remove all glycan moieties regardless of modification.
Methods. Vero cells were infected with WNV (multiplicity=3) and treated with PP2 (or DMSO as a control) 1 h post-infection (hpi). At 24 or 48 hpi, cells were lysed in buffer containing 1% NP-40. Lysates were denatured and treated with endo H or PNGase F for 1 h. Samples were resolved by SDS-PAGE, and WNV E was detected by western blotting.

[7] = system: HIV-1 89.6; assay: HIV replication assay (HIV-1 p24 antigen ELISA) in HIV-infected THP-1 and MT-2 cells; assay type: cell-based; conditions: MT-2 cells infected with HIV 89.6; continued presence of 10 μM
[8] = system: mitochondrial respiration in viable cells; assay: XTT respiration assay to assess compound toxicity; assay type: cell-based; conditions: at the concentrations used (20/40 μM Doxepin, 50/100 μM Pyrilamine, 50/100 μM Acyclovir, 20 μM PP2, 20 μM PP3)
Text: The agents tested are cross-referenced to the respective bar graphs as shown in insert of the right panel. […] Briefly, the XTT assay is based on the cleavage of XTT (sodium 3-[1-(phenylamino-carbonyl)-3,4-tetrazolium]-bis (4-methoxy-6-nitro) benzene sulfonic acid hydrate) to form formazan by mitochondrial respiration in viable cells (see, e.g., Marshall et al., Growth Regul. 5:69-84, 1995).

[9] = system: c-yes mRNA; assay: Quantitative RT-PCR of c-yes mRNA in siRNA-transfected Huh7 cells; assay type: cell-based, human; conditions: 2 μl of 20 μM siRNA per 300,000 cells, harvested 24 hpi
Experimental: Huh7 cells were transfected with either of c-yes-specific siRNAs 214 or 316, or a control siRNA directed against Lamins A and C. Transfection of 300,000 cells was carried out with 2 μl of a 20 μM siRNA (Dharmacon) and 1 μl Oligofectamine (Invitrogen) according to the manufacturer's protocol. Cells were […] 24 hours post-transfection, and cells and supernatant harvested at 24 hpi. 1 μg total cellular RNA was used for quantitative RT-PCR with c-yes-specific primers.

[10] = PMO-treated HIV-infected MT-2 cells
[11] = PMO-treated HIV-infected THP-1 cells

CC(C)(C)n1nc(-c2ccc(Cl)cc2)c2c(N)ncnc21 [PP2, 4-Amino-5-(4-chlorophenyl)-7-(t-butyl)pyrazolo[3,4-d]pyrimidine]
anti-HIV activity (p24 production) ([1]; HIV-infected cells, 20 μM): substantial inhibition of HIV
HIV-induced syncytia formation [2]: substantially reduced syncytia formation
decrease of infectious WNV in the supernatant [3]: 30 fold
virus within the infected cell, lower than untreated ([4]; 24 hours post-addition of fresh PP2): approximately 500 fold
decrease of infectious virus within infected cell lysates ([4]; four hours post-addition of fresh PP2): ~10^6 fold
viral RNA within infected cells, treated vs untreated [5]: no significant difference
proportion of endo H-resistant population of WNV E protein [6]: dramatically decreased
HIV p24 production [7]: substantial decrease

CN(C)CCC=C1c2ccccc2COc2ccccc21 [doxepin]
compound toxicity (XTT respiration assay) [8]: Except for the higher concentration of doxepin, the compounds were not toxic

Cc1cn([C@H]2C[C@H](N=[N+]=[N-])[C@@H](CO)O2)c(=O)[nH]c1=O [AZT]
HIV-induced syncytia formation [2]: substantially reduced syncytia formation

HRH1 (antisense GCGAAAGAGCAGCCGCCAGTTATGG; all phosphorodiamidate morpholino (PMO))
Extent of PMO-induced Inhibition of HIV replication [1]: positive
inhibition of HIV replication (HIV p24 gag production) [1, 10]: particularly effective at reproducibly inhibiting HIV replication
inhibition of HIV replication (HIV p24 gag production) [1, 11]: particularly effective at reproducibly inhibiting HIV replication

YES (antisense TTTCTTTACTTTTAATGCAGCCCAT; all phosphorodiamidate morpholino (PMO))
Extent of PMO-induced Inhibition of HIV replication [1]: positive
inhibition of HIV replication (HIV p24 gag production) [1, 10]: particularly effective at reproducibly inhibiting HIV replication
inhibition of HIV replication (HIV p24 gag production) [1, 11]: particularly effective at reproducibly inhibiting HIV replication

HMG20B (antisense CGCCCAGCATCTTGGTGATCTCGGG; all phosphorodiamidate morpholino (PMO))
Extent of PMO-induced Inhibition of HIV replication [1]: positive
inhibition of HIV replication (HIV p24 gag production) [1, 10]: particularly effective at reproducibly inhibiting HIV replication
inhibition of HIV replication (HIV p24 gag production) [1, 11]: particularly effective at reproducibly inhibiting HIV replication

ARF1 (antisense ATGCTTGTGGACAGGTGGAAGGACA; all phosphorodiamidate morpholino (PMO))
Extent of PMO-induced Inhibition of HIV replication [1]: (negative)
inhibition of HIV replication (HIV p24 gag production) [1, 10]: little or no affect on HIV replication

c-yes-specific siRNA 214 (guide AACGCCUUUUGGAGGUGCAUC; chemistry not given here; listed as Homo sapiens)
c-yes mRNA [9]: reduction of c-yes mRNA
